The values below are quoted from earlier work in patent publication US20220265670A1, “COMPOSITION AND USE THEREOF FOR THE TREATMENT OF CUTANEOUS MASTOCYTOSIS” (AC BIOSCIENCE SA, priority 2019, published 2022).

One series relates to PDGF-R. The settings on record: cellular level; read-out: IC50, PDGF-R-dependent cell proliferation.
The subject of series [1] is JM-mutated (exon 11) c-Kit. The note with it: cellular level; read-out: IC50, JM-mutated (exon 11) c-Kit-dependent cell proliferation.
For the next series, the system named is mast degranulation. The note with it: low masitinib concentrations.
A further series deals with c-Kit (Homo sapiens, UniProt P10721).
c-Kit, sequence (P10721 26-976): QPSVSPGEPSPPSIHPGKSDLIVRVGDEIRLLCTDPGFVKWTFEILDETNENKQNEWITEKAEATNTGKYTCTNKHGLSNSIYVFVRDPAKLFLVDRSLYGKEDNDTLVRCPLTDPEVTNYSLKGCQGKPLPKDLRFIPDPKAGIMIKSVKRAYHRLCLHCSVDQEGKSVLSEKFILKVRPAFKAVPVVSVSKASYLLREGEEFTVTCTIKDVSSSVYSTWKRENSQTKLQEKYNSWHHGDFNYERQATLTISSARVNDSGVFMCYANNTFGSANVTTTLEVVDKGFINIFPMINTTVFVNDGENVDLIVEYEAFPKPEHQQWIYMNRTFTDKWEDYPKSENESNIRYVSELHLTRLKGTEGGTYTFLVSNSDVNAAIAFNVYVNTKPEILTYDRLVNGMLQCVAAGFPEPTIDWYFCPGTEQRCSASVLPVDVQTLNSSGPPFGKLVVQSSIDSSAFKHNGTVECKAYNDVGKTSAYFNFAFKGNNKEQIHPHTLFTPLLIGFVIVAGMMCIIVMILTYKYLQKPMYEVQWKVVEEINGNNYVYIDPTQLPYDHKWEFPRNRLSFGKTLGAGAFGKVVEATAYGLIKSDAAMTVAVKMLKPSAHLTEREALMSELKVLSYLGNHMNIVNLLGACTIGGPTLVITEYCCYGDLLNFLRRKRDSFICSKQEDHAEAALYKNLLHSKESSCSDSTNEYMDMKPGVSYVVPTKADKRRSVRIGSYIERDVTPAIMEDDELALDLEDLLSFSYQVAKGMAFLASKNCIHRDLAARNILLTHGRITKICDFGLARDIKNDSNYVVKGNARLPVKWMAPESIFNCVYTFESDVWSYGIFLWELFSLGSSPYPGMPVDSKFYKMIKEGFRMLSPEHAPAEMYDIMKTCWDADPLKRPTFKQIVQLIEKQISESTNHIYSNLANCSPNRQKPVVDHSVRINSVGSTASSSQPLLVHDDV

Regarding `Cc1ccc(NC(=O)c2ccc(CN3CCN(C)CC3)cc2)cc1Nc1nc(-c2cccnc2)cs1` [Masitinib], the IC50 in the series on PDGF-R is […]; in series [1], 5 nM. Further, in the series on mast degranulation, the “inhibition of mast degranulation” value is “significant inhibition of mast degranulation”.

Regarding `Cc1ccc(NC(=O)c2ccc(CN3CCNCC3)cc2)cc1Nc1nc(-c2cccnc2)cs1` [AB3280], the “inhibitory profile relative to masitinib” value on c-Kit is on record as “essentially the same inhibitory profile as masitinib, even though slightly less potent than masitinib”.
